These results are taken from PubChem BioAssay (NCI).

What all share (test): NCI-60 cell line screen, 48 h
The test system of test [1] is SK-OV-3 ovarian.
The subject of test [2] is RXF 393 renal.
The subject of test [3] is MALME-3M melanoma.
Test [4] concerns UACC-257 melanoma.
The subject of test [5] is SR leukemia.
For test [6], the system named is BT-549 breast.
Test [7] deals with ACHN renal.
The subject of test [8] is HCC-2998 colon.
The test system of test [9] is UACC-62 melanoma.
Test [10] concerns SF-268 CNS.

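Protocol summary: plate cells (96-well), add compound at 5 concentrations, incubate 48 h, interpolate endpoints linearly. At the GI50, growth is halved. Definition used: TGI = concentration required for complete inhibition of growth.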

Take `COc1cc(CNCCCCCCN2C(=O)c3cccc4cccc(c34)C2=O)ccc1O`: the GI50 was 12.3 µM in [1]; 2 µM in test [2]; 2.02 µM in [3]; 2.15 µM in test [4]; 2.36 µM in test [5]; 14.5 µM in test [6]. In addition, the GI50 in test [7] was 5.38 µM; in test [8], 11.2 µM; in test [9], 13.1 µM; in test [10], 8.4 µM. Also, the TGI is 24.8 µM in [1]; 9.19 µM in [2]; 4.63 µM in test [3]; 4.49 µM in test [4]; 7.8 µM in [5]; 27.9 µM in test [6]. Further, the TGI in test [7] was determined as 18.4 µM; in [8], 24.6 µM; in test [9], 26.2 µM; in test [10], 24.8 µM.
In the case of `O=C1NC(=NCc2ccccc2Cl)S/C1=C\c1ccc2ncccc2c1`, the GI50 in test [1] was 15.6 µM; in test [2], 8.49 µM; in [3], greater than 20.7 µM; in test [4], greater than 25 µM; in [5], 1.04 µM; in test [6], 7.86 µM. The GI50 in [7] is 9.54 µM; in [8] it was greater than 25 µM; in test [9], 17.8 µM; in test [10], 18.9 µM. Also, the TGI in test [1] was greater than 25 µM; in test [2], greater than 25 µM; in test [3], greater than 25 µM; in [4], greater than 25 µM; in test [5] it was greater than 19.6 µM; in test [6], greater than 25 µM. Moreover, the TGI in [7], in test [8], in test [9] and in test [10] was greater than 25 µM each time.
As to `COc1ccc(-c2cc(-c3ccc(Nc4nc(Nc5ccccc5)nc(Nc5ccc(Cl)cc5)n4)cc3)nc(N)n2)cc1`, the GI50 in [1] was 22.7 µM; in test [2] it was 12.1 µM; in [3] it was 15.2 µM; in [4], 15.9 µM; in [5], 5.63 µM; in [6], 10 µM. Moreover, the GI50 in test [7] was 16.4 µM; in test [8], 12.8 µM; in test [9] it was 12.1 µM; in test [10], 13.3 µM. Also, the TGI in test [1] is greater than 50 µM; in test [2], 30.7 µM; in test [3] it was greater than 50 µM; in [4], 45.5 µM; in test [5], 18.7 µM; in test [6], 29.5 µM. For the same molecule, the TGI in test [7] is greater than 50 µM; in test [8], 35 µM; in test [9] it was greater than 50 µM; in test [10] it was 46.8 µM.
On to `COc1cc2oc(-c3cccc(C(=O)Nc4ccc(Cl)cc4)c3)cc(=O)c2c(OC)c1OC`, for which the GI50 in test [1] was 3.41 µM; in test [2], 1.25 µM; in [3] it was 2.48 µM; in test [4] it was 2.53 µM; in [5] it was 0.493 µM; in test [6], 1.18 µM. The GI50 is 3.17 µM in test [7], 3.05 µM in [8], 2.5 µM in test [9] and 4.66 µM in test [10]. In addition, the TGI in [1] is greater than 100 µM; in test [2], 5.09 µM; in test [3], 7.26 µM; in [4], 5.72 µM; in test [5], greater than 100 µM; in [6], greater than 100 µM. In addition, the TGI in test [7] is greater than 100 µM; in test [8] it was greater than 100 µM; in test [9] it was 8.65 µM; in test [10] it was greater than 100 µM.
For `CC(C)(C)c1cc(C(=O)Nc2ccccc2C(=O)NCCN)cc(C(C)(C)C)c1`, the GI50 in [1] was 1.9 µM; in test [2] it was 2.01 µM; in test [3] it was 1.93 µM; in [4], 1.9 µM; in [5] it was 1.94 µM; in [6], 2.33 µM. Also, the GI50 in test [7] was 1.84 µM; in test [8], 1.83 µM; in [9], 1.83 µM; in [10] it was 1.86 µM. The TGI was 3.69 µM in test [1]; 3.58 µM in test [2]; 3.64 µM in test [3]; 3.93 µM in [4]; 4.56 µM in test [5]; 5.84 µM in test [6]. Moreover, the TGI worked out at 3.46 µM in test [7], 3.4 µM in [8], 3.44 µM in [9] and 3.62 µM in [10].
As for `COc1cc2c(c(OC)c1OC)-c1ccc(NN(C(=O)c3ccccc3)C(=O)c3ccccc3)c(=O)cc1[C@@H](NC(C)=O)CC2` (tested in a mixture with another compound), the GI50 was 2.65 µM in test [1]; 2.24 µM in test [2]; 17.6 µM in test [3]; 14.4 µM in test [4]; 3.76 µM in test [5]; 2.63 µM in test [6]. For the same molecule, the GI50 in [7] is 4.27 µM; in test [8], 3.23 µM; in test [9] it was 4.18 µM; in test [10] it was 4.61 µM. Also, the TGI in [1] is 8.77 µM; in [2], 8 µM; in [3], greater than 100 µM; in test [4] it was 62.9 µM; in test [5], greater than 100 µM; in [6], 8.15 µM. Also, the TGI in test [7] was 24.8 µM; in test [8], 12.7 µM; in test [9], 42.1 µM; in [10] it was greater than 100 µM.
